Test results: patent publication US6706947B2, “Method for screening for agents against cancer using an immunosuppression animal model” (Fremantle Hospital, priority 1996, dated 2004)
In brackets after ≈: the same amount, converted by molar mass.

Columns and labels:
SKMEL = conditions: day 3 in culture, MTT
Description: (§1) All tumour cell lines were incubated at 37° C./5%CO2/95% humidity and the medium was changed every 3 to 4 days. For passage and assay, cells were detached with 0.1% w/v trypsin/0.02% w/v versene (CSL).
(§2) The assay was performed according to the method of Mosmann (1983). […] 20 μl of MTT (stock at 5 mg/ml in PBS) was added to each well and the plates incubated at 37° C. for 4 hours. 100 ul of 0.04N HCl-isopropanol was then added to each well and the dark blue formazan-crystals were dissolved by mixing. Optical densities (ODs) were determined at 590 nm using a Titertek multiscan photometer (Flow Labs.) and were directly proportional to cell growth (Mosmann, 1983).
(§3) Tumour cell growth inhibition was assessed using the MTT assay.
(§4) If the values fall in a straight line the effects are additive, and if the points form a concave curve, the effects are synergistic. […] The fractional survival of the individual reagents is determined and the two values are multiplied together. The product of the two values becomes the expected cell survival, and is compared with the observed fractional survival when the two reagents are tested together. […]

[1] = literature (Borel, 1989; Reynolds et al, 1992; Eichenberger et al, 1989a); cited from earlier work
HT-29 = conditions: HT-29, day 3 in culture, MTT
Description: as §1, §2, §3, §4

[2] = Steady-state plasma concentrations of ketoconazole in sheep (hplc); assay type: in vivo
Description: Following the first dose on the first study day, venous blood samples (5 ml, anticoagulated with EDTA) were collected at 0.17, 0.33, 0.5, 0.75, 1, 2, 3, 4, 6, 8, 12, 15, 22, 27 and 32 h. […] Ketoconazole administration was continued throughout the latter blood sampling period.
Some blood samples taken on days 18-23 were centrifuged to yield plasma which was frozen at −20° C. until analysed for ketoconazole by a specific hplc method. Aliquots of plasma (0.1 ml) were vortexed vigorously with 1 ml acetonitrile (containing 8 mg of fluoxetine hydrochloride as internal standard) for 15 sec. The mixture was centrifuged at 1200 g for 10 min to sediment proteins, 0.5 ml of the supernatant was aspirated, transferred to a clean tube and evaporated to dryness at 50° C. using dry N2. The extract was reconstituted in 0.2 ml of hplc mobile phase and 0.02 ml aliquots were injected onto the hplc column. The hplc system consisted of a Merck RP Select B C18 column (25 cm×4.6 mm id), a mobile phase of 55% acetonitrile in 0.01% v/v H3PO4 and 0.01% W/V NaCl. The solvent was pumped at a flow rate of 1.5 ml/min and eluting compounds were detected by their UV absorbence at 210 nm.

B16M = conditions: day 3 in culture, MTT
Description: as §1, §2, §3, §4

Compound: CC(=O)N1CCN(c2ccc(OCC3COC(Cn4ccnc4)(c4ccc(Cl)cc4Cl)O3)cc2)CC1 (centres unmarked) [Ketoconazole]
- ED50 (± SD) (SKMEL): 28.3 ± 1.7 µg/mL (≈ 53.3 µM)
- Maximum therapeutic plasma concentration [1]: 0.10 µg/mL
- ED50 (± SD) (HT-29): 12.7 ± 2.0 µg/mL (≈ 23.9 µM)
- Steady-state concentration of ketoconazole in plasma (mean of trough samples) ([2]; sheep 14, days 18-23, ketoconazole 10 mg/kg po twice daily): 2.6 mg/L
- Steady-state concentration of ketoconazole in plasma (mean of trough samples) ([2]; sheep 15, days 18-23, ketoconazole 10 mg/kg po twice daily): 2.19 mg/L
- Steady-state concentration of ketoconazole in plasma (mean of trough samples) ([2]; sheep 16, days 18-23, ketoconazole 10 mg/kg po twice daily): 1.63 mg/L
- Steady-state concentration of ketoconazole in plasma (mean of trough samples) ([2]; sheep 17, days 18-23, ketoconazole 10 mg/kg po twice daily): 3.04 mg/L
- ED50 (± SD) (B16M): 18.2 ± 3.9 µg/mL (≈ 34.2 µM)
